These results are taken from patent US7169568B2, “Method for screening molecules that exert a neurotrophic effect through activation of neurotrophin receptors” (New York University, priority 2000, dated 2007).

Where no end group is shown, it is not given here.

In the assay the test system is TrkA receptors. The experiment in a line: TrkA receptor phosphorylation in primary E18 basal forebrain neurons (immunoprecipitation, anti-phosphotyrosine Western blot). It counts as cell-based, rat. As to conditions: 10 nM, 2 hours. The method, then:
Primary cultures of E18 basal forebrain neurons were prepared as described in the Materials and Methods section of Example 2 and treated with PACAP38 (10 nM) or NGF (10 ng/ml) for various times. Activation of TrkA receptors was assessed by immunoprecipitation and Western blotting with anti-phosphotyrosine antibody.
Immunoprecipitated and Immunoblotting. PC12 (615) cells were maintained in DMEM containing 10% FBS supplemented with 100 units/ml penicillin, 100 μg/ml streptomycin, and 2 mM glutamine plus 200 μg/ml G418. Cells were placed in serum free medium overnight before experiments. Cell lysates from PC12(615) cells, or basal forebrain cells were incubated in lysis buffer (1% Nonidet P-40) for 4 hrs to overnight at 4° C. with anti-pan-Trk polyclonal antibody followed by incubation with protein A-Sepharose beads. Equivalent amounts of protein were analyzed for each condition. The beads were washed five times with lysis buffer, and the immune complexes were boiled in SDS-sample buffer and loaded on SDS-PAGE gels for immunoblot analysis. The immunoreactive protein bands were detected by enhanced chemiluminescence (Amersham Pharmacia).
Basal Forebrain Cell Cultures. […] Cells were counted and plated on culture wells coated with 0.01 mg/ml poly-D-lysine overnight. […]
A general note: Immunoblotting shows a protein as a band on a membrane.

In the case of “PACAP27: 27 amino acid form of PACAP (HSDGIFTDSYSRYRKQMAVKKYLAAVL; ends and bridges not checked; UniProt P18509 132-158, looked up, fragment)”, the “Phosphorylation of TrkA receptors” value was “gave rise to phosphorylated TrkA receptors”.
